Test results published in US8901147B2, “Bi-heteroaryl compounds as Vps34 inhibitors” (Novartis AG, priority 2010, dated 2014).
pIC50: −log10 of the molar value.

molecular target: recombinant human Vps34 (Homo sapiens, UniProt Q8NEB9); assay: Vps34 KinaseGlo assay; format: biochemical; settings: KinaseGlo luminescence ATP detection; PI/OG substrate; 1 μM ATP; room temperature; 8 concentrations, n=2
Method: It was then resuspended in 3% OctylGlucoside by vortexing and stored at 4° C. 5 μL of a mix of PI/OG with recombinant human Vps34 were added. Kinase reactions were started by addition of 5 μl of ATP-mix containing in a final volume 10 μL 10 mM TRIS-HCl pH 7.5, 3 mM MgCl2, 50 mM NaCl, 0.05% CHAPS, 1 mM DTT and 1 μM ATP, and occurred at room temperature. Reactions were stopped with 10 μl of KinaseGlo and plates were read 10 minutes later in a Synergy2 reader using an integration time of 0.1 seconds per well.

recombinant human Vps34, sequence (Q8NEB9 whole entry): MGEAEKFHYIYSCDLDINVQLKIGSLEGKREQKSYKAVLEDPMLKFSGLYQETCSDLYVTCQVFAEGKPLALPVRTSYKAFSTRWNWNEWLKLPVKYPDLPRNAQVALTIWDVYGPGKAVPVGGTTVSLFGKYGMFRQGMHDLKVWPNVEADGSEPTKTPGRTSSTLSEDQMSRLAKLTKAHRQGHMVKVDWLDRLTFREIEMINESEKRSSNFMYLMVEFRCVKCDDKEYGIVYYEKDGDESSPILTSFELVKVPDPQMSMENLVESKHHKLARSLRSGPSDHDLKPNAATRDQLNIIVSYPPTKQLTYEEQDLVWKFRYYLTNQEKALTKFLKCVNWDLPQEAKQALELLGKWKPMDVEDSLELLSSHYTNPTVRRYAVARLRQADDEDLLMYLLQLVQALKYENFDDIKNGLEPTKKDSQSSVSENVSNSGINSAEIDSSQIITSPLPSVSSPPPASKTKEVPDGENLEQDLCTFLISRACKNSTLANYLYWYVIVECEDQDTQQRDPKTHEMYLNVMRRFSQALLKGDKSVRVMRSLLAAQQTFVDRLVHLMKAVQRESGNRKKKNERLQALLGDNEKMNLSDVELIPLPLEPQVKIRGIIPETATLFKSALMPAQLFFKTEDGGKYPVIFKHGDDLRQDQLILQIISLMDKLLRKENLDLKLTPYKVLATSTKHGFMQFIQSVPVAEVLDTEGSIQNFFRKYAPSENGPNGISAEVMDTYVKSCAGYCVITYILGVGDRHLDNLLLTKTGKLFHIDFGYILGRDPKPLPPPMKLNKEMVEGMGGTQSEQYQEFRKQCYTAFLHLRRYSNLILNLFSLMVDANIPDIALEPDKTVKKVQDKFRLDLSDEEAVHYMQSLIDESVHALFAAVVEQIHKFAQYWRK

SMILES	pIC50
Cc1ncc(-c2ccnc(N[C@H]3CC[C@H](O)CC3)n2)c(CC2CC2)n1 [Example 6c, (1r,4r)-4-(4′-(cyclopropylmethyl)-2′-methyl-4,5′-bipyrimidin-2-ylamino)cyclohexanol]	6.11
CNc1ncc(-c2ccnc(N[C@H]3CC[C@H](O)CC3)n2)c(CC2CC2)n1 [Example 6e, (1r, 4r)-4-(4′-(cyclopropylmethyl)-2′-(methylamino)-4,5′-bipyrimidin-2-ylamino)cyclohexanol]	6.95
COc1ncc(-c2ccnc(NC3CCC(O)CC3)n2)c(CC2CC2)n1 (stereo not shown) [Example 6f, 4-(4′-(cyclopropylmethyl)-2′-methoxy-4,5′-bipyrimidin-2-ylamino)cyclohexanol]	5.40
CCNc1ncc(-c2ccnc(Nc3ccncc3)n2)c(CC2CC2)n1 [Example 10b, 4′-(cyclopropylmethyl)-N^2′-ethyl-N^2-(pyridin-4-yl)-4,5′-bipyrimidine-2,2′-diamine]	7.70
c1ccc(CNc2ncc(-c3ccnc(Nc4ccncc4)n3)c(CC3CC3)n2)cc1 [Example 10c, N^2′-benzyl-4′-(cyclopropylmethyl)-N^2-(pyridin-4-yl)-4,5′-bipyrimidine-2,2′-diamine]	7.12
CC(C)CNc1ncc(-c2ccnc(Nc3ccncc3)n2)c(CC2CC2)n1 [Example 10d, 4′-(cyclopropylmethyl)-N^2′-isobutyl-N^2-(pyridin-4-yl)-4,5′-bipyrimidine-2,2′-diamine]	7.14
c1cc(Nc2nccc(-c3cnc(NC4CCCC4)nc3CC3CC3)n2)ccn1 [Example 10e, N2′-cyclopentyl-4′-(cyclopropylmethyl)-N2-(pyridin-4-yl)-4,5′-bipyrimidine-2,2′-diamine]	7.11
c1cc(Nc2nccc(-c3cnc(NC4CCC4)nc3CC3CC3)n2)ccn1 [Example 10f, N^2′-cyclobutyl-4′-(cyclopropylmethyl)-N^2-(pyridin-4-yl)-4,5′-bipyrimidine-2,2′-diamine]	7.34
C[C@@H](Nc1ncc(-c2ccnc(Nc3ccncc3)n2)c(CC2CC2)n1)c1ccccc1 [Example 10h, (R)-4′-(cyclopropylmethyl)-N^2′-(1-phenylethyl)-N^2-(pyridin-4-yl)-4,5′-bipyrimidine-2,2′-diamine]	6.59
CC(C)(C)Nc1ncc(-c2ccnc(Nc3ccncc3)n2)c(CC2CC2)n1 [Example 10i, N^2′-tert-butyl-4′-(cyclopropylmethyl)-N^2-(pyridin-4-yl)-4,5′-bipyrimidine-2,2′-diamine]	7.46
CC(O)CNc1ncc(-c2ccnc(Nc3ccncc3)n2)c(CC2CC2)n1 (stereo not shown) [Example 10j, 1-(4′-(cyclopropylmethyl)-2-(pyridin-4-ylamino)-4,5′-bipyrimidin-2′-ylamino)propan-2-ol]	7.54
COCCNc1ncc(-c2ccnc(Nc3ccncc3)n2)c(CC2CC2)n1 [Example 10n, 4′-(cyclopropylmethyl)-N^2′-(2-methoxyethyl)-N^2-(pyridin-4-yl)-4,5′-bipyrimidine-2,2′-diamine]	7.51
C[C@H](CO)Nc1ncc(-c2ccnc(Nc3ccncc3)n2)c(CC2CC2)n1 [Example 10p, (R)-2-(4′-(cyclopropylmethyl)-2-(pyridin-4-ylamino)-4,5′-bipyrimidin-2′-ylamino)propan-1-ol]	6.68
CCC(C)Nc1ncc(-c2ccnc(Nc3ccncc3)n2)c(CC2CC2)n1 (stereo not shown) [Example 10s, N^2′-sec-butyl-4′-(cyclopropylmethyl)-N^2-(pyridin-4-yl)-4,5′-bipyrimidine-2,2′-diamine]	7.29
CC(C)(O)CNc1ncc(-c2ccnc(Nc3ccncc3)n2)c(CC2CC2)n1 [Example 10t, 1-(4′-(cyclopropylmethyl)-2-(pyridin-4-ylamino)-4,5′-bipyrimidin-2′-ylamino)-2-methylpropan-2-ol]	7.82
c1cc(Nc2nccc(-c3cncnc3CC3CC3)n2)ccn1 [Example 10v, 4′-(cyclopropylmethyl)-N-(pyridin-4-yl)-4,5′-bipyrimidin-2-amine]	6.67
Nc1ncc(-c2ccnc(Nc3ccncc3)n2)c(COCc2ccccc2)n1 [Example 13, 4′-Benzyloxymethyl-N^2-pyridin-4-yl-[4,5′]bipyrimidinyl-2,2′-diamine]	8.15
CNc1ncc(-c2ccnc(Nc3ccc(OC)nc3)n2)c(CC2CC2)n1 [Example 14a, 4′-Cyclopropylmethyl-N^2-(6-methoxy-pyridin-3-yl)-N^2′-methyl-[4,5′]bipyrimidinyl-2,2′-diamine]	6.94
CNc1ncc(-c2ccnc(Nc3ccncc3)n2)c(CC2CC2)n1 [Example 14c, 4′-(cyclopropylmethyl)-N^2′-methyl-N^2-(pyridin-4-yl)-4,5′-bipyrimidine-2,2′-diamine]	7.43
CNc1ncc(-c2ccnc(NC3CCCCC3)n2)c(CC2CC2)n1 [Example 14e, N^2-Cyclohexyl-4′-cyclopropylmethyl-N^2′-methyl-[4,5′]bipyrimidinyl-2,2′-diamine]	5.96
CNc1ncc(-c2ccnc(NC3CCC3)n2)c(CC2CC2)n1 [Example 14f, N^2-cyclobutyl-4′-(cyclopropylmethyl)-N^2′-methyl-4,5′-bipyrimidine-2,2′-diamine]	6.14
CNc1ncc(-c2ccnc(NC3CCOCC3)n2)c(CC2CC2)n1 [Example 14g, 4′-(cyclopropylmethyl)-N^2′-methyl-N^2-(tetrahydro-2H-pyran-4-yl)-4,5′-bipyrimidine-2,2′-diamine]	6.40
CNc1ncc(-c2ccnc(NC3CCCC3)n2)c(CC2CC2)n1 [Example 14h, N^2-cyclopentyl-4′-(cyclopropylmethyl)-N^2′-methyl-4,5′-bipyrimidine-2,2′-diamine]	5.87
CNc1ncc(-c2ccnc(NC3CCC(N)CC3)n2)c(CC2CC2)n1 (stereo not shown) [Example 14j, N^2-(4-aminocyclohexyl)-4′-(cyclopropylmethyl)-N^2′-methyl-4,5′-bipyrimidine-2,2′-diamine]	6.39

The remaining molecules from weak to strong by pIC50, led by results:

pIC50	SMILES
6.00	O[C@H]1CC[C@H](Nc2nccc(-c3cncnc3CC3CC3)n2)CC1 [Example 6a, Trans-4-{[4′-(cyclopropylmethyl)-4,5′-bipyrimidin-2-yl]amino}cyclohexanol]
6.14	CCc1ncc(-c2ccnc(N[C@H]3CC[C@H](O)CC3)n2)c(CC2CC2)n1 [Example 6d, (1r,4r)-4-(4′-(cyclopropylmethyl)-2′-ethyl-4,5′-bipyrimidin-2-ylamino)cyclohexanol]
6.24	c1cc(Nc2nccc(-c3cnc(NC4CCCCC4)nc3CC3CC3)n2)ccn1 [Example 12b, N^2′-cyclohexyl-4′-(cyclopropylmethyl)-N^2-(pyridin-4-yl)-4,5′-bipyrimidine-2,2′-diamine]
6.46	CNc1ncc(-c2ccnc(N[C@H]3CC[C@H](NC(=O)OC(C)(C)C)CC3)n2)c(CC2CC2)n1 [Example 14i, tert-butyl (1r,4r)-4-(4′-(cyclopropylmethyl)-2′-(methylamino)-4,5′-bipyrimidin-2-ylamino)cyclohexylcarbamate]
6.54	CNc1ncc(-c2ccnc(Nc3ccccc3)n2)c(CC2CC2)n1 [Example 14b, 4′-(cyclopropylmethyl)-N^2′-methyl-N^2-phenyl-4,5′-bipyrimidine-2,2′-diamine]
6.58	Nc1ncc(-c2ccnc(N[C@H]3CC[C@H](O)CC3)n2)c(CC2CC2)n1 [Example 6b, (1r, 4r)-4-(2′-amino-4′-(cyclopropylmethyl)-4,5′-bipyrimidin-2-ylamino)cyclohexanol]
6.63	c1cc(Nc2nccc(-c3cnc(NC4CCOCC4)nc3CC3CC3)n2)ccn1 [Example 10g, 4′-(cyclopropylmethyl)-N^2-(pyridin-4-yl)-N^2′-(tetrahydro-2H-pyran-4-yl)-4,5′-bipyrimidine-2,2′-diamine]
6.88	CNc1ncc(-c2ccnc(Nc3cnc4ccccc4c3)n2)c(CC2CC2)n1 [Example 14d, 4′-(cyclopropylmethyl)-N^2′-methyl-N^2-(quinolin-3-yl)-4,5′-bipyrimidine-2,2′-diamine]
6.97	CSc1ncc(-c2ccnc(Nc3ccncc3)n2)c(CC2CC2)n1 [Example 11, 4′-(Cyclopropylmethyl)-2′-(methylsulfanyl)-N-pyridin-4-yl-4,5′-bipyrimidin-2-amine]
7.04	COc1ncc(-c2ccnc(Nc3ccncc3)n2)c(CC2CC2)n1 [Example 10u, 4′-(cyclopropylmethyl)-2′-methoxy-N-(pyridin-4-yl)-4,5′-bipyrimidin-2-amine]
7.07	CC(C)(C)CNc1ncc(-c2ccnc(Nc3ccncc3)n2)c(CC2CC2)n1 [Example 10r, 4′-(cyclopropylmethyl)-N2′-neopentyl-N2-(pyridin-4-yl)-4,5′-bipyrimidine-2,2′-diamine]
7.28	C[C@@H](CO)Nc1ncc(-c2ccnc(Nc3ccncc3)n2)c(CC2CC2)n1 [Example 10q, (S)-2-(4′-(cyclopropylmethyl)-2-(pyridin-4-ylamino)-4,5′-bipyrimidin-2′-ylamino)propan-1-ol]
7.34	c1cc(Nc2nccc(-c3cnc(NC4CC4)nc3CC3CC3)n2)ccn1 [Example 12c, N^2′-cyclopropyl-4′-(cyclopropylmethyl)-N^2-(pyridin-4-yl)-4,5′-bipyrimidine-2,2′-diamine]
7.46	CC(C)Nc1ncc(-c2ccnc(Nc3ccncc3)n2)c(CC2CC2)n1 [Example 12a, 4′-Cyclopropylmethyl-N^2′-isopropyl-N^2-pyridin-4-yl-[4,5′]bipyrimidinyl-2,2′-diamine]
7.50	CC(CO)Nc1ncc(-c2ccnc(Nc3ccncc3)n2)c(CC2CC2)n1 (stereo not shown) [Example 10o, 2-(4′-(cyclopropylmethyl)-2-(pyridin-4-ylamino)-4,5′-bipyrimidin-2′-ylamino)propan-1-ol]
7.94	OCCNc1ncc(-c2ccnc(Nc3ccncc3)n2)c(CC2CC2)n1 [Example 10m, 2-(4′-(cyclopropylmethyl)-2-(pyridin-4-ylamino)-4,5′-bipyrimidin-2′-ylamino)ethanol]
